Results from publication PMC6683251, “Flavanol Bioavailability in Two Cocoa Products with Different Phenolic Content. A Comparative Study in Humans” (Nutrients, 2019).
Like-named read-outs stand apart in the source and are kept apart here.

How the values were obtained:
[1] = Plasma nutrikinetics of flavanol metabolites after a single serving of soluble cocoa product (HPLC-ESI-QToF-MS); format: in vivo, human; conditions: for AUC: human plasma 0-8 h; for AUC / Tmax / Cmax: mean ± SD, n = 13; for Tmax / Cmax: human plasma; for Cmax: read-out: Cmax; for Detection of un-metabolized compound in the collected biological fluids: plasma and urine, CC and CC-PP
Description: The study was carried out in thirteen healthy subjects (3 men and 10 women); the mens’ average age and body mass index were 26.67 ± 3.21 year and 22.47 ± 2.97 kg/m^2, respectively, and womens’ were 32.60 ± 9.85 year and 23.36 ± 3.73 kg/m^2, respectively. They were non-smoker, non-vegetarian, non-pregnant women, who were not taking any medication or nutritional supplements, and were not suffering from any chronic pathology or gastrointestinal disorder. The sample size was estimated attending to similar previous bioavailability studies. The volunteers gave their informed consent prior to participation.
(§1) The present randomized, single-blind study was carried out at the Human Nutrition Unit (HNU) of the Institute of Food Science, Technology and Nutrition (ICTAN). Volunteers attended the HNU on two days, separated by two weeks. Three days previous to each visit, participants were instructed not to consume cocoa products (chocolate, soluble cocoa, etc.), juices, tea, wine, grape must, oranges, tangerines, apples, grapes, strawberries or other berries, beets, onions, soybeans and soy derivatives. In addition, volunteers were asked to complete a 24 h food intake recall the day before they attended the HNU in order to monitor any possible food restriction incompliance.
On each intervention day, volunteers arrived at the HNU after an overnight fast. Prior to the intake of the soluble cocoa product, a nurse inserted a cannula in the cubital vein of the non-prevailing arm of the volunteers and blood samples were collected into EDTA-coated tubes at baseline (t = 0) and 0.5, 1, 2, 3, 4, 6, and 8 h after consuming the corresponding cocoa product. The soluble cocoa products, either 15 g of CC or 25 g CC-PP, were dissolved in 200 mL of semi-skimmed milk following manufacturer’s preparation instructions. Plasma was separated by centrifugation (10 min, 3000 rpm, 4 °C) and stored at −80 °C until further analysis. Urine samples were collected at different time intervals (t = −2–0, 0–4, 4–8, 8–12, and 12–24 h) in urine collection flasks that contained 0.5 g of ascorbic acid as preservative and were aliquoted and frozen at −20 °C until analysis. A polyphenol-free breakfast, lunch and afternoon snack were provided 2 h, 4 h, and 8 h after consumption of cocoa products, and water and isotonic beverages were available ad libitum.
A liquid–liquid extraction and protein precipitation with acetonitrile was used to isolate metabolites from plasma. A 1 mL defrosted plasma sample was mixed with 50 μL of ascorbic acid (0.2 g/mL). After vortexing the aqueous mixture, it was added drop wise to 750 μL of cold acetonitrile and vortexed for 2 min before centrifuging at 12,000 rpm for 10 min at 4 °C. The supernatant was separated, and the pellet was re-extracted twice more following the same procedure. Supernatants were combined and reduced to dryness under a stream of nitrogen at 30 °C. The dried samples were resuspended in 150 μL of aqueous formic acid (0.1%) containing 10% acetonitrile acidified with 0.1% formic acid and centrifuged at 4 °C for 20 min at 14,000 rpm. The final supernatant was collected, filtered (0.45 μm pore-size, cellulose-acetate membrane filters, Albet, Dassel (Germany)) and 30 μL were analyzed by high-performance liquid chromatography coupled to electrospray ionisation and quadrupole time-of-flight mass spectrometry (HPLC-ESI-QToF-MS).
Analyses were performed on an Agilent 1200 series LC system coupled to an Agilent 6530A Accurate-Mass Quadrupole Time-Of-Flight (Q-ToF) with ESI-Jet Stream Technology (Agilent Technologies). Compounds were separated on a reverse-phase Ascentis Express C18 (15 cm × 3 mm, […]) column (Sigma-Aldrich Química, Madrid) preceded by a Supelco 55215-U guard column at 30 °C. […]

[2] = Urinary excretion of flavanol metabolites (0-24 h) after a single serving of soluble cocoa product (HPLC-ESI-QToF-MS); format: in vivo, human; conditions: mean ± SD, n = 13; for Excreted in urine, Total: 24 h urine; for Excreted in urine, Basal: basal urine (−2–0 h, before intake)
Description: They were non-smoker, non-vegetarian, non-pregnant women, who were not taking any medication or nutritional supplements, and were not suffering from any chronic pathology or gastrointestinal disorder. The sample size was estimated attending to similar previous bioavailability studies. The volunteers gave their informed consent prior to participation.
as §1, with “derivatives.” for “derivatives. In addition, volunteers were asked to complete a 24 h food intake recall the day before they attended the HNU in order to monitor any possible food restriction incompliance.”
On each intervention day, volunteers arrived at the HNU after an overnight fast. […] The soluble cocoa products, either 15 g of CC or 25 g CC-PP, were dissolved in 200 mL of semi-skimmed milk following manufacturer’s preparation instructions. Plasma was separated by centrifugation (10 min, 3000 rpm, 4 °C) and stored at −80 °C until further analysis. […] A polyphenol-free breakfast, lunch and afternoon snack were provided 2 h, 4 h, and 8 h after consumption of cocoa products, and water and isotonic beverages were available ad libitum.
Urine samples were diluted with an equivalent volume of Milli-Q water (50%) and centrifuged at 14000 rpm (10 min, 4 °C). Supernatants were filtered (0.45 μm pore-size cellulose-acetate membrane filters) and a 5 µL aliquot was directly injected into the LC-ESI-QToF-MS equipment.
The test samples, either 30 μL of the plasma extract or 5 μL of diluted urine, were injected and separated using a mobile phase consisting of Milli-Q water (phase A) and acetonitrile (phase B), both containing 0.1% formic acid, at a flow rate of 0.3 mL/min. The mobile phase was initially programmed with 90% of solvent A and 10% of B. The elution program increased to 30% of solvent B in 10 min. Then, the initial conditions (10% solvent B) were recovered in 5 min and maintained for 5 min.
Due to the lack of standards for certain phase II metabolites, they were tentatively quantified using the calibration curves of their corresponding phenolic precursors. […] The rest of microbial metabolites identified, derivatives of hydroxyphenylpropionic, hydroxyphenylacetic, hydroxybenzoic and hippuric acids, were quantified using their respective commercially available standards. Urine concentration of the excreted metabolites was normalized by the volume excreted in each studied interval. […] Calibration curves were freshly prepared in a pool of both plasma and urine due to matrix effects.
Statistical analyses were carried out using the program SPSS (version 23.0, SPSS, Inc., IBM Company, New York, NY, USA). Significant differences between metabolites excreted in urine after consumption of CC and CC-PP cocoa products were evaluated based on non-parametric Wilcoxon test (p < 0.05). To determine the absorption and elimination of epicatechin metabolites after consumption of the soluble cocoa products, metabolite nutrikinetics were studied using the pharmacokinetic functions of Microsoft Excel, calculating the maximum concentration (Cmax), area under curve (AUC) and time to reach maximum concentration (Tmax). Data are expressed as mean ± standard deviation.

[3] = after CC-PP (68.25 mg flavanols)
[4] = both sexes, oral, after CC-PP (68.25 mg flavanols), read-out: AUC
[5] = both sexes, oral, after CC-PP (68.25 mg flavanols), read-out: Tmax
[6] = both sexes, oral, after CC-PP (25 g in 200 mL semi-skimmed milk, 68.25 mg flavanols)

Molecule | Excreted in urine, Total ([2]; after CC (19.80 mg flavanols)) | Excreted in urine, 0–4 h ([2]; after CC (19.80 mg flavanols)) | Excreted in urine, 4–8 h ([2]; after CC (19.80 mg flavanols)) | Excreted in urine, 8–12 h ([2]; after CC (19.80 mg flavanols)) | Excreted in urine, 12–24 h ([2]; after CC (19.80 mg flavanols)) | Excreted in urine, Total [2, 3] [µmol] | Excreted in urine, 0–4 h [2, 3] [µmol] | Excreted in urine, 4–8 h [2, 3] | Excreted in urine, 8–12 h [2, 3] | Excreted in urine, 12–24 h [2, 3] | other results
5-Phenyl-γ-valerolactone-methoxy-glucuronide [PVL-methoxy-glucuronide] | – | – | – | – | – | – | – | – | – | – | AUC ([1]; after CC (19.80 mg flavanols)): 0.078 ± 0.032; AUC [1, 3]: 0.091 ± 0.059; Tmax ([1]; after CC (19.80 mg flavanols)): 5.3 ± 1.0 h; Cmax ([1]; after CC (15 g in 200 mL semi-skimmed milk, 19.80 mg flavanols)): 22 ± 1 nM; Tmax [1, 3]: 5.6 ± 1.3 h; Cmax ([1]; after CC-PP (25 g in 200 mL semi-skimmed milk, 68.25 mg flavanols)): 27 ± 3 nM
COc1cc([C@H]2Oc3cc(O)cc(OS(=O)(=O)O)c3C[C@H]2O)ccc1O (single isomer, unassigned) [Epicatechin-methoxy-sulfate (isomer 1), Epicatechin-methoxy-sulfate] | 4.428 ± 0.800 µmol | 2.717 ± 0.457 µmol | 1.300 ± 0.197 µmol | 0.154 ± 0.031 µmol | 0.257 ± 0.114 µmol | 12.481 ± 2.243 | 8.642 ± 1.434 | 3.277 ± 0.644 µmol | 0.330 ± 0.095 µmol | 0.232 ± 0.070 µmol | AUC ([1]; both sexes, oral, 19.8 mg, after CC (19.80 mg flavanols), read-out: AUC): 0.122 ± 0.025 µM·h; Tmax ([1]; both sexes, oral, 19.8 mg, after CC (19.80 mg flavanols), read-out: Tmax): 1.3 ± 0.6 h; AUC [1, 4]: 0.173 ± 0.107 µM·h; Cmax ([1]; both sexes, oral, after CC (15 g in 200 mL semi-skimmed milk, 19.80 mg flavanols)): 31 ± 3 nM; Tmax [1, 5]: 1.1 ± 0.6 h; Cmax [1, 6]: 41 ± 2 nM
COc1cc([C@H]2Oc3cc(OS(=O)(=O)O)cc(O)c3C[C@H]2O)ccc1O (single isomer, unassigned) [Epicatechin-methoxy-sulfate (isomer 2), Epicatechin-methoxy-sulfate] | 0.428 ± 0.062 µmol | 0.181 ± 0.032 µmol | 0.247 ± 0.030 µmol | <L.Q. | <L.Q. | 1.200 ± 0.293 | 0.566 ± 0.152 | 0.557 ± 0.120 µmol | 0.077 ± 0.021 µmol | <L.Q. | AUC [1, 4]: 0.145 ± 0.107 µM·h; Tmax [1, 5]: 1.3 ± 0.5 h; Cmax [1, 6]: 41 ± 4 nM
O=C(O)c1ccc(O)c(O)c1 [Protocatechuic acid, 3,4-Dihydroxybenzoic acid] | 0.959 ± 0.217 µmol | 0.227 ± 0.142 µmol | 0.373 ± 0.237 µmol | 0.094 ± 0.047 µmol | 0.104 ± 0.044 µmol | 0.528 ± 0.105 | 0.105 ± 0.016 | 0.113 ± 0.020 µmol | 0.095 ± 0.040 µmol | 0.127 ± 0.015 µmol | Excreted in urine, Basal ([2]; CC intervention): 0.161 ± 0.071 µmol; Excreted in urine, Basal ([2]; CC-PP intervention): 0.088 ± 0.014 µmol
O.Oc1cc(O)c2c(c1)O[C@H](c1ccc(O)c(O)c1)[C@@H](O)C2 [catechin] | – | – | – | – | – | – | – | – | – | – | Detection of un-metabolized compound in the collected biological fluids [1]: Neither un-metabolized epicatechin and catechin nor procyanidins B1 and B2 were detected
Oc1cc(O)c2c(c1)O[C@H](c1ccc(O)c(O)c1)[C@H](O)[C@H]2c1c(O)cc(O)c2c1O[C@H](c1ccc(O)c(O)c1)[C@@H](O)C2 [procyanidins B1, procyanidin B1] | – | – | – | – | – | – | – | – | – | – | Detection of un-metabolized compound in the collected biological fluids [1]: Neither un-metabolized epicatechin and catechin nor procyanidins B1 and B2 were detected
Epicatechin-3′-methoxy-glucuronide | <L.Q. * | <L.Q. | <L.Q. | – | – | 0.121 ± 0.036 | 0.121 ± 0.036 | <L.Q. | <L.Q. | – | –
Hydroxybenzoic acid [Hidroxybenzoic acid] | 0.798 ± 0.162 µmol | 0.145 ± 0.027 µmol | 0.200 ± 0.051 µmol | 0.070 ± 0.018 µmol | 0.195 ± 0.025 µmol | 1.380 ± 0.365 | 0.396 ± 0.060 | 0.298 ± 0.036 µmol | 0.172 ± 0.063 µmol | 0.302 ± 0.169 µmol | Excreted in urine, Basal ([2]; CC intervention): 0.188 ± 0.041 µmol; Excreted in urine, Basal ([2]; CC-PP intervention): 0.212 ± 0.037 µmol
